Experiments:
DPPIV = target: T1, DPPIV (Homo sapiens, UniProt P27487); experiment: LC-MS assay of niclosamide production from prodrug with DPPIV; assay type: biochemical; conditions: 24 hrs
T1 construct: purchased R&D Systems
Procedure: (§1) In vitro Characterization of Enzymatic Activation Kinetics and FAP-specific Cellular UptakelCytotoxicity: Kinetics of compound activation by FAP is performed as previously described (Aggarwal et al. Biochemistry 47, 1076-1086 (2008); Denmeade et al. Sci TranslMed 4, 140ra186 (2012)). Briefly, increasing concentrations of the test compound (0-10 µM) are incubated with rhFAP, rhDPPIV, or rhPREP [20 nM] (R&D Systems) at 37° C. while shaking. Aliquots are taken to determine concentrations of the test compound and active drug compound at time points ranging from 0-24 hrs using the LCMS method described above in Example 4. Kinetic constants (Km and kcat) are calculated on the basis of the rate of hydrolysis (v) during the linear phase using Michaelis-Menten plots (v vs [S]) with nonlinear regression analysis. Cellular uptake in the presence or absence of rhFAP is determined in cell lysates using the same methodology. Cytotoxicity is determined via MTT in the presence or absence of rhFAP and/or a FAP-specific inhibitor (Jansen et al. J Med Chem 57, 3053-3074 (2014).

PREP = target: T2, PREP (Homo sapiens, UniProt P48147); experiment: LC-MS assay of niclosamide production from prodrug with PREP; assay type: biochemical; conditions: 24 hrs
T2 construct: purchased R&D Systems
T2 sequence (P48147 1-710): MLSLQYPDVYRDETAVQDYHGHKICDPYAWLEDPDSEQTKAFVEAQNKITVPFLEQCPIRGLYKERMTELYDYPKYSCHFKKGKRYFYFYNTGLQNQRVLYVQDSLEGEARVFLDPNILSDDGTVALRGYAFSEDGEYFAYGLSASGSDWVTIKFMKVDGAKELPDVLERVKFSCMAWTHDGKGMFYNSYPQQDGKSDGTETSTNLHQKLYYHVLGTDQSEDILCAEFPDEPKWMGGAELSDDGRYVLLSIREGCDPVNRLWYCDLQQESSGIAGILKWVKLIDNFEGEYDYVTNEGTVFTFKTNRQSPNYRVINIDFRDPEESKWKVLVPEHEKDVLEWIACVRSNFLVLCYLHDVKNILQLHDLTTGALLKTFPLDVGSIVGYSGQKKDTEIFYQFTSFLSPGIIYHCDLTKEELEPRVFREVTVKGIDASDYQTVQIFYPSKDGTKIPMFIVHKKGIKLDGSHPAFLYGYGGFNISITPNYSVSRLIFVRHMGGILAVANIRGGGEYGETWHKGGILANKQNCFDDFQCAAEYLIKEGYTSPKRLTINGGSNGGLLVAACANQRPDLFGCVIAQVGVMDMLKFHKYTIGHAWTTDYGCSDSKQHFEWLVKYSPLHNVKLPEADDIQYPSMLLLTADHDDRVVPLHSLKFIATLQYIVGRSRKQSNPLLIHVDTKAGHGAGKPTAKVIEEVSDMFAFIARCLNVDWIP
Procedure: as §1

Myc-CaP-CR tumors = experiment: Abiraterone-resistant CRPC tumor model (Myc-CaP-CR) in vivo
Procedure: Animals were treated with either abiraterone at 10 mg/kg by daily oral gavage alone or together with Compound 1 at 50 mg/kg IV on d0 and d4. Toxicity was monitored by measuring body weight and body score (i.e., appearance, lethargy, etc.).

FAP [1] = target: T3, FAP (Homo sapiens, UniProt Q12884); experiment: Kinetics of FAP-dependent activation in vitro +/- BSA (HPLC); assay type: biochemical
T3 sequence (Q12884 1-760): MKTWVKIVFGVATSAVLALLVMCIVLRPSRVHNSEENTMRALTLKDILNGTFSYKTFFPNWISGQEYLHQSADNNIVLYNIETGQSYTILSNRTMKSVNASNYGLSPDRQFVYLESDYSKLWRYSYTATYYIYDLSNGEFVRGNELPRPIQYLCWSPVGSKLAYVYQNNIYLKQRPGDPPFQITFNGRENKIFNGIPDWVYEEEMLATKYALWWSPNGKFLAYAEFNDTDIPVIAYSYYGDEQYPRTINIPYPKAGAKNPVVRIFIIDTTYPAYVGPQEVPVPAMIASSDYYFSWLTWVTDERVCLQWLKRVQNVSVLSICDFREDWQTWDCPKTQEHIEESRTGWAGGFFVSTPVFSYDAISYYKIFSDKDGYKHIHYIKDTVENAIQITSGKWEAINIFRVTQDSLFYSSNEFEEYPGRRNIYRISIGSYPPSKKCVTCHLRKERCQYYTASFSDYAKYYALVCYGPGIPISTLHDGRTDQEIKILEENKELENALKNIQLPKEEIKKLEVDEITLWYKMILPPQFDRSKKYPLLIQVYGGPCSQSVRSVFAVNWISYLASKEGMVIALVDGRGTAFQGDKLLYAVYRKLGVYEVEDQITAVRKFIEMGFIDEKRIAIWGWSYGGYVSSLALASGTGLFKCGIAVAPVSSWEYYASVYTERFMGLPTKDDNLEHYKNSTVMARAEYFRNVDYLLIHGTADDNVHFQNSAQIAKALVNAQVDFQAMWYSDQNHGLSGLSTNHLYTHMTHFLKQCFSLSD
Procedure: Compound 1 was incubated in Buffer (50 mM Tris-HCl, pH 7.4; 150 mM NaCI) +/-0.4% BSA in glass vials, mixing at 37° C. Aliquots were taken at indicated time points and the presence of Compound 1 (prodrug) and Niclosamide (active compound) were quantified via HPLC.

LNCaP cells = experiment: Seahorse XF Cell Mito Stress Test; assay type: cell-based
Procedure: A mitochondrial stress test assay was performed using the Agilent Seahorse XF Cell Mito Stress Test Kit (catalog no. 103015-100), a widely-used assay for assessing mitochondrial function. Compound 1 or niclosamide (1 µM) was incubated overnight at 37° C. shaking, with or without FAP (20 nM) in Seahorse Media. This mixture was added to LNCaP cells (60 k cells) the next day, immediately prior to starting the assay (0.5 µM final concentration).

CWR22-H tumors = experiment: Castration-resistant CWR22-H tumors in castrated male NSG mice; assay type: in vivo
Procedure: Castrated male NSG mice were inoculated with castration-resistant CWR22-H tumors in 50% Matrigel. When tumors reached ~0.2 cc, treatment with Compound 1 (40 mg/kg) via intraperitoneal (I.P.) injection was initiated. Tumor volumes and body weights were monitored 2x/wk. […] Treatment was well-tolerated as documented by weight loss of <20%.

FAP [2] = target: T3, FAP; experiment: LC-MS assay of FAP-dependent production of niclosamide from prodrug; assay type: biochemical; set-up: purchased R&D Systems
Procedure: as §1

[3] = Pharmacokinetics: plasma, liver, kidney, smooth muscle levels after Compound 1 dosing
Procedure: (§2) Column: Luna 2.5u C18, 100 mm ×2.5 mm (Phenomenex 00D-4446-B0). Mobile phase: A = 0.5% acetonitrile/H2O/0.1% formic acid; B= 95% acetonitrile/H2O/0.1% formic acid; Flow = 150 µL/min.

[4] = test system: panel of benign and malignant cells; experiment: MTT assay, potency of niclosamide against a panel of cells; assay type: cell-based; conditions: all cells tested (FIG. 3A)
From the text: FIGS. 3A-3D show characterization data for a compound disclosed herein (Compound 1).

[5] = test system: mammalian cells such as mCRPCs, TAMs, MSCs, and CAFs; conditions: all cells, including mammalian cells; read-out: LC50 (the source's name); cited from earlier work
[6] = in vivo, 40 mg/kg
Procedure: as §2

[7] = test system: SkCaP-1 (human PCa xenograft); experiment: SkCaP-1 human PCa xenograft in NSG mice; assay type: in vivo; conditions: 30 mg/kg i.p. daily vs DMSO control (FIG. 4)
Procedure: Intact male NSG mice (3-4 per group) bearing SkCaP-1 (human PCa xenograft) were treated with 30 mg/kg Compound 4 (a tasquinimod compound) i.p. daily, or a control (DMSO).

FAP [8] = target: T3, FAP; experiment: FAP-dependent activation of Compound 4 in vitro (HPLC); assay type: biochemical; set-up: purchased R&D Systems; conditions: buffer +/- rhFAP (20 nM) overnight (~16 hrs), 37° C., HPLC (FIG. 10)
Procedure: Compound 4 was incubated in buffer +/- rhFAP (20 nM) overnight (~16 hrs), mixing at 37° C. Aliquots taken at indicated time points and the presence of Compound 4 (prodrug) and Tasquinimod (TasQ) were quantified via HPLC.

T1 sequence (P27487 whole entry): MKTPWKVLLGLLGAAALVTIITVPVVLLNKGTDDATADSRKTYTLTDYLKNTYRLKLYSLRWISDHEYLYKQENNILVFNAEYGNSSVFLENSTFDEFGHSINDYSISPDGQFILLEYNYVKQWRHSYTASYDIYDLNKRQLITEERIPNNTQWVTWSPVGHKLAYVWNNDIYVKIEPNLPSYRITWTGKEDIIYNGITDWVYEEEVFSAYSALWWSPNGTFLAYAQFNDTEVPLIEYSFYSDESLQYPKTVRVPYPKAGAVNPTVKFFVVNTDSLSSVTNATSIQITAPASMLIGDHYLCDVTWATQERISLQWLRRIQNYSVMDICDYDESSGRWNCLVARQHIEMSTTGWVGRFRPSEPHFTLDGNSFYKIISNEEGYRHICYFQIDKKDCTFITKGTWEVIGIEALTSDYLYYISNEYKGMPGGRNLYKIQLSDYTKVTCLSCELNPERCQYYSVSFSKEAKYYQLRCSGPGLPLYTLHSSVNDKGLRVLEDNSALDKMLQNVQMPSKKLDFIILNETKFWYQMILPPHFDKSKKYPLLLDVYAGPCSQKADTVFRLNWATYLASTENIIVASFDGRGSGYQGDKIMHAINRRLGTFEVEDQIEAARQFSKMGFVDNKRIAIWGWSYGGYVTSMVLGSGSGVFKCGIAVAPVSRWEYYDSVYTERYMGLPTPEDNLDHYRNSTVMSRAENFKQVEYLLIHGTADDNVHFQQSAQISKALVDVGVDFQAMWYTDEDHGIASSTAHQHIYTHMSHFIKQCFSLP

O=C(Nc1ccc([N+](=O)[O-])cc1Cl)c1cc(Cl)ccc1OCc1ccc(NC(=O)C2CC(F)(F)CN2C(=O)CNC(=O)c2ccnc3ccccc23)cc1 (stereo not drawn) [Compound 1]
production of active niclosamide (DPPIV): no production observed | production of active niclosamide (PREP): no production observed | toxicity (body weight and body score) (Myc-CaP-CR tumors; Compound 1 50 mg/kg IV d0 and d4 together with abiraterone 10 mg/kg (FIG. 3D)): no evidence of toxicity | anti-tumor efficacy (Myc-CaP-CR tumors; Compound 1 50 mg/kg IV d0 and d4 together with abiraterone 10 mg/kg daily oral gavage (FIG. 3C)): significant anti-tumor efficacy | effect of BSA on production of the active compound (FAP [1]; 0.4% BSA): BSA inhibits production of the active compound | prodrug and active compound over time (FAP [1]; buffer pH 7.4, 37° C., HPLC (FIG. 5)): time-dependent increase in the active compound and concomitant decrease in the prodrug over time | baseline ECAR (LNCaP cells; activated by FAP): already at maximum | oxygen consumption rate (OCR), mitochondrial uncoupling (LNCaP cells; activated by FAP (20 nM) overnight, 0.5 µM final (FIG. 6)): uncouples mitochondria | extracellular acidification rate (ECAR) on oligomycin addition (LNCaP cells; activated by FAP (FIG. 7)): does not change with the addition of oligomycin | non-mitochondrial respiration (LNCaP cells; activated by FAP, after rotenone and antimycin A): no change in non-mitochondrial respiration | weight loss (CWR22-H tumors; 40 mg/kg daily IP): < 20% | anti-tumor activity (tumor volume) (CWR22-H tumors; 40 mg/kg daily IP (FIG. 8)): Anti-tumor activity was observed | production of active niclosamide (FAP [2]; absence of enzyme, 24 hrs): no production observed | increase in active niclosamide (FAP [2]; with FAP, over 24 hrs (FIG. 3B)): ~ 20 fold | plasma level as % of the IV dose ([3]; 40 mg/kg IP): ~ 50% | kidney level as % of the IV dose ([3]; 40 mg/kg IP, at ~4 hrs): ~ 30% | liver level as % of the IV dose ([3]; 40 mg/kg IP, at ~4 hrs): ~ 50% | converted to niclosamide (kidney) ([3]; Compound 1 administered IV or IP): < 10% | stability of the prodrug as a systemic therapy ([3]; in vivo, from tissue niclosamide levels): good stability | concentration at 1 hr ([3]; kidney, intravenous, 40 mg/kg): ~50 µM | concentration at 1 hr ([3]; kidney, oral, 40 mg/kg): ~1 µM | Kp at 1 hr ([3]; liver, intravenous, 40 mg/kg): 10 to 15 | concentration at 1 hr ([3]; liver, intravenous, 40 mg/kg): ~100 µM | concentration at 1 hr ([3]; liver, oral, 40 mg/kg): ~10 µM | bioavailability ([3]; liver, po, 40 mg/kg): ~10% | half-life ([3]; plasma, intravenous, 40 mg/kg): 3 to 4 h | Cmax ([3]; plasma, iv, 40 mg/kg): ~7 µM | Cmax ([3]; plasma, po, 40 mg/kg): ~0.4 µM | bioavailability ([3]; plasma, po, 40 mg/kg): 5 to 10%

O=C(Nc1ccc([N+](=O)[O-])cc1Cl)c1cc(Cl)ccc1O [Niclosamide, niclosamide]
IC50 [4]: < 500 nM | CC50 [5]: < 1000 nM | niclosamide in liver as % of Compound 1 concentrations [6]: 25-50% | niclosamide in plasma as % of Compound 1 dose [6]: < 10% | niclosamide in smooth muscle as % based on liver concentrations [6]: < 1% | niclosamide in smooth muscle as % of administered dose based on plasma concentrations [6]: 5-10% | niclosamide level in plasma [6]: < 1 µM | niclosamide level in smooth muscle [6]: < 1 µM

COc1cccc2c1c(OCc1ccc(NC(=O)C3CC(F)(F)CN3C(=O)CNC(=O)c3ccnc4ccccc34)cc1)c(C(=O)N(C)c1ccc(C(F)(F)F)cc1)c(=O)n2C (stereo not drawn) [Compound 4]
tumor growth (tumor volume) [7]: decreases tumor growth compared to the control | FAP-dependent activation to tasquinimod (FAP [8]): confirm FAP-dependent activation
